Assay: Anticancer human tumor 997537-175-T-J1-PDC patient-derived colon adenocarcinoma cell line growth inhibition [POLQ]
Conditions: 997537-175-T-J1-PDC complex spheroid viability, combination with POLQ inhibitors; for IC50: curve of first compound; for viability, T/C: stronger effect = lower value; active = viability on the fitted dose curve at most 10% of control; inactive = the rest
Procedure, shortened: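 Three-cell-type spheroids modelling solid tumor plus stroma served as the readout system; POL inhibitors were tested individually and in combination, concentration ranges set by clinical Cmax where known.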

[1] = second compound 0.0316 µM, first compound 0.0316 µM
[2] = second compound 0.0316 µM, first compound 0.1 µM
[3] = second compound 0.1 µM, first compound 0.0316 µM
[4] = second compound 0.1 µM, first compound 0.1 µM
[5] = second compound 0.316 µM, first compound 0.0316 µM
[6] = second compound 0.316 µM, first compound 0.1 µM
[7] = second compound 1 µM, first compound 0.0316 µM
[8] = second compound 1 µM, first compound 0.1 µM
[9] = second compound 3.16 µM, first compound 0.0316 µM
[10] = second compound 3.16 µM, first compound 0.1 µM
[11] = second compound 10 µM, first compound 0.0316 µM
[12] = second compound 10 µM, first compound 0.1 µM
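Also: luminescence signal used as a surrogate for viable cells; spheroids exposed to drugs for seven days before readout.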

CC[C@@]1(O)C(=O)OCc2c1cc1n(c2=O)Cc2cc3c(CN(C)C)c(O)ccc3nc2-1 + COC1C(OC(N)=O)C(O)C(Oc2ccc3c(O)c(NC(=O)c4ccc(O)c(CC=C(C)C)c4)c(=O)oc3c2C)OC1(C)C
inactive: viability, T/C (second compound 0.0316 µM, first compound 0.000316 µM) 102% | viability, T/C (second compound 0.0316 µM, first compound 0.001 µM) 104% | viability, T/C (second compound 0.0316 µM, first compound 0.00316 µM) 110% | viability, T/C (second compound 0.0316 µM, first compound 0.01 µM) 103% | viability, T/C [1] 90.8% | viability, T/C [2] 77.6% | viability, T/C (second compound 0.1 µM, first compound 0.000316 µM) 111% | viability, T/C (second compound 0.1 µM, first compound 0.001 µM) 101% | viability, T/C (second compound 0.1 µM, first compound 0.00316 µM) 111% | viability, T/C (second compound 0.1 µM, first compound 0.01 µM) 103% | viability, T/C [3] 97.2% | viability, T/C [4] 68.6% | viability, T/C (second compound 0.316 µM, first compound 0.000316 µM) 96.2% | viability, T/C (second compound 0.316 µM, first compound 0.001 µM) 95% | viability, T/C (second compound 0.316 µM, first compound 0.00316 µM) 116% | viability, T/C (second compound 0.316 µM, first compound 0.01 µM) 102% | viability, T/C [5] 105% | viability, T/C [6] 58.4% | viability, T/C (second compound 1 µM, first compound 0.000316 µM) 90.8% | viability, T/C (second compound 1 µM, first compound 0.001 µM) 92.3% | viability, T/C (second compound 1 µM, first compound 0.00316 µM) 99.6% | viability, T/C (second compound 1 µM, first compound 0.01 µM) 96.3% | viability, T/C [7] 86% | viability, T/C [8] 76.8% | viability, T/C (second compound 3.16 µM, first compound 0.000316 µM) 101% | viability, T/C (second compound 3.16 µM, first compound 0.001 µM) 110% | viability, T/C (second compound 3.16 µM, first compound 0.00316 µM) 107% | viability, T/C (second compound 3.16 µM, first compound 0.01 µM) 92.6% | viability, T/C [9] 81.7% | viability, T/C [10] 55.6% | viability, T/C (second compound 10 µM, first compound 0.000316 µM) 105% | viability, T/C (second compound 10 µM, first compound 0.001 µM) 105% | viability, T/C (second compound 10 µM, first compound 0.00316 µM) 107% | viability, T/C (second compound 10 µM, first compound 0.01 µM) 98.5% | viability, T/C [11] 98.2% | viability, T/C [12] 70.2%
> 0.1 µM: IC50 (second compound 0.0316 µM) | IC50 (second compound 0.1 µM) | IC50 (second compound 0.316 µM) | IC50 (second compound 1 µM) | IC50 (second compound 3.16 µM) | IC50 (second compound 10 µM)

Nc1ccn(C2OC(CO)C(O)C2(F)F)c(=O)n1 (centres undefined) + COC1C(OC(N)=O)C(O)C(Oc2ccc3c(O)c(NC(=O)c4ccc(O)c(CC=C(C)C)c4)c(=O)oc3c2C)OC1(C)C
inactive: viability, T/C [1] 95.8% | viability, T/C [2] 108% | viability, T/C (second compound 0.0316 µM, first compound 0.316 µM) 79.4% | viability, T/C (second compound 0.0316 µM, first compound 1 µM) 85.2% | viability, T/C (second compound 0.0316 µM, first compound 3.16 µM) 65.8% | viability, T/C (second compound 0.0316 µM, first compound 10 µM) 88.2% | viability, T/C [3] 108% | viability, T/C [4] 106% | viability, T/C (second compound 0.1 µM, first compound 0.316 µM) 72.2% | viability, T/C (second compound 0.1 µM, first compound 1 µM) 95% | viability, T/C (second compound 0.1 µM, first compound 3.16 µM) 80.6% | viability, T/C (second compound 0.1 µM, first compound 10 µM) 74.9% | viability, T/C [5] 103% | viability, T/C [6] 106% | viability, T/C (second compound 0.316 µM, first compound 0.316 µM) 88.7% | viability, T/C (second compound 0.316 µM, first compound 1 µM) 78.4% | viability, T/C (second compound 0.316 µM, first compound 3.16 µM) 73.9% | viability, T/C (second compound 0.316 µM, first compound 10 µM) 66.8% | viability, T/C [7] 106% | viability, T/C [8] 89.9% | viability, T/C (second compound 1 µM, first compound 0.316 µM) 100% | viability, T/C (second compound 1 µM, first compound 1 µM) 76.5% | viability, T/C (second compound 1 µM, first compound 3.16 µM) 63.6% | viability, T/C (second compound 1 µM, first compound 10 µM) 70.6% | viability, T/C [9] 97.9% | viability, T/C [10] 97% | viability, T/C (second compound 3.16 µM, first compound 0.316 µM) 92.5% | viability, T/C (second compound 3.16 µM, first compound 1 µM) 94.6% | viability, T/C (second compound 3.16 µM, first compound 3.16 µM) 71.7% | viability, T/C (second compound 3.16 µM, first compound 10 µM) 62.7% | viability, T/C [11] 84.6% | viability, T/C [12] 90.8% | viability, T/C (second compound 10 µM, first compound 0.316 µM) 86.5% | viability, T/C (second compound 10 µM, first compound 1 µM) 63.7% | viability, T/C (second compound 10 µM, first compound 3.16 µM) 71.6% | viability, T/C (second compound 10 µM, first compound 10 µM) 72.3%
> 10 µM: IC50 (second compound 0.0316 µM) | IC50 (second compound 0.1 µM) | IC50 (second compound 0.316 µM) | IC50 (second compound 1 µM) | IC50 (second compound 3.16 µM) | IC50 (second compound 10 µM)

— PubChem BioAssay AID1963825 (Molecular Pharmacology Branch, DTP, NCI, 2024)
